Reference: patent US10597388B2, “Pyridazinone herbicides” (FMC CORPORATION, priority 2014, dated 2020)

Columns and labels:
Assay in all cases: Test C greenhouse herbicide test, pre- and postemergence
Type in all cases: in vivo
[1] = system: johnsongrass (Sorghum halepense)
Procedure, shortened: (§1)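 Preemergence: seeds sown in a loam soil–sand blend and sprayed with test chemicals in a non-phytotoxic solvent mixture containing surfactant. Postemergence: plants grown in peat-based medium and treated at 2 to 18 cm (1- to 4-leaf stage). After 13 to 15 d in a greenhouse, injury was visually rated 0–100 against controls.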

[2] = system: lambsquarters (Chenopodium album)
Procedure, shortened: as §1

[3] = system: blackgrass (Alopecurus myosuroides)
Procedure, shortened: as §1

[4] = system: galium (catchweed bedstraw, Galium aparine)
Procedure, shortened: as §1

[5] = system: corn (Zea mays)
Procedure, shortened: as §1

[6] = system: waterhemp (common waterhemp, Amaranthus rudis)
Procedure, shortened: as §1

[7] = system: wheat (winter wheat, Triticum aestivum)
Procedure, shortened: as §1

[8] = system: velvetleaf (Abutilon theophrasti)
Procedure, shortened: as §1

[9] = system: oilseed rape (Brassica napus)
Procedure, shortened: as §1

[10] = system: morningglory (Ipomoea coccinea)
Procedure, shortened: as §1

[11] = system: soybean (Glycine max)
Procedure, shortened: as §1

[12] = system: nutsedge, yellow (yellow nutsedge, Cyperus esculentus)
Procedure, shortened: as §1

[13] = system: pigweed (Amaranthus retroflexus)
Procedure, shortened: as §1

[14] = system: foxtail, giant (giant foxtail, Setaria faberii)
Procedure, shortened: as §1

[15] = system: crabgrass, large (large crabgrass, Digitaria sanguinalis)
Procedure, shortened: as §1

[16] = system: ryegrass, Italian (Italian ryegrass, Lolium multiflorum)
Procedure, shortened: as §1

[17] = Postemergence, 31 g ai/ha, scale 0 to 100 (0 no effect, 100 complete control)
[18] = Postemergence, 62 g ai/ha, 0 to 100 scale (0 no effect, 100 complete control)
[19] = Postemergence, 250 g ai/ha, scale 0 to 100, 0 no effect, 100 complete control, 13 to 15 d
[20] = Preemergence, 31 g ai/ha, scale 0 to 100, 0 is no effect, 100 is complete control
[21] = Preemergence, 62 g ai/ha, scale 0 to 100, 0 is no effect, 100 is complete control
[22] = Preemergence, 125 g ai/ha, scale 0 to 100, 0 is no effect, 100 is complete control
[23] = Preemergence, 250 g ai/ha, scale 0 to 100 (0 no effect, 100 complete control)
[24] = postemergence, 125 g ai/ha, scale 0 to 100, 0 no effect, 100 complete control

Compound: CCC(=O)Oc1c(C)nn(C)c(=O)c1-c1ccc(Br)c2ccccc12 [Compound 133]
- Plant response rating, Johnsongrass [1, 17]: 5
- Johnsongrass plant response rating [1, 18]: 10
- Plant response rating, Johnsongrass [1, 19]: 10
- Plant response rating, Johnsongrass [1, 20]: 5
- Plant response rating, Johnsongrass [1, 21]: 35
- Plant response rating, Johnsongrass [1, 22]: 30
- Johnsongrass plant response rating [1, 23]: 40
- Johnsongrass plant response rating [1, 24]: 20
- Plant response rating, Lambsquarters [2, 17]: 95
- Lambsquarters plant response rating [2, 18]: 98
- Plant response rating, Lambsquarters [2, 19]: 100
- Plant response rating, Lambsquarters [2, 20]: 90
- Plant response rating, Lambsquarters [2, 21]: 90
- Plant response rating, Lambsquarters [2, 22]: 95
- Lambsquarters plant response rating [2, 23]: 95
- Lambsquarters plant response rating [2, 24]: 100
- Plant response rating, Blackgrass [3, 17]: 45
- Blackgrass plant response rating [3, 18]: 35
- Plant response rating, Blackgrass [3, 19]: 30
- Plant response rating, Blackgrass [3, 20]: 30
- Plant response rating, Blackgrass [3, 21]: 60
- Plant response rating, Blackgrass [3, 22]: 50
- Blackgrass plant response rating [3, 23]: 50
- Blackgrass plant response rating [3, 24]: 70
- Plant response rating, Galium [4, 17]: 90
- Galium plant response rating [4, 18]: 95
- Plant response rating, Galium [4, 19]: 100
- Plant response rating, Galium [4, 20]: 95
- Plant response rating, Galium [4, 21]: 95
- Plant response rating, Galium [4, 22]: 100
- Galium plant response rating [4, 23]: 100
- Galium plant response rating [4, 24]: 98
- Plant response rating, Corn [5, 17]: 5
- Corn plant response rating [5, 18]: 5
- Plant response rating, Corn [5, 19]: 5
- Plant response rating, Corn [5, 20]: 5
- Plant response rating, Corn [5, 21]: 5
- Plant response rating, Corn [5, 22]: 10
- Corn plant response rating [5, 23]: 10
- Corn plant response rating [5, 24]: 5
- Plant response rating, Waterhemp [6, 17]: 95
- Waterhemp plant response rating [6, 18]: 100
- Plant response rating, Waterhemp [6, 19]: 100
- Plant response rating, Waterhemp [6, 20]: 80
- Plant response rating, Waterhemp [6, 21]: 100
- Plant response rating, Waterhemp [6, 22]: 95
- Waterhemp plant response rating [6, 23]: 100
- Waterhemp plant response rating [6, 24]: 100
- Plant response rating, Wheat [7, 17]: 25
- Wheat plant response rating [7, 18]: 35
- Plant response rating, Wheat [7, 19]: 80
- Plant response rating, Wheat [7, 20]: 0
- Plant response rating, Wheat [7, 21]: 0
- Plant response rating, Wheat [7, 22]: 10
- Wheat plant response rating [7, 23]: 40
- Wheat plant response rating [7, 24]: 55
- Plant response rating, Velvetleaf [8, 17]: 85
- Velvetleaf plant response rating [8, 18]: 90
- Plant response rating, Velvetleaf [8, 19]: 100
- Plant response rating, Velvetleaf [8, 20]: 55
- Plant response rating, Velvetleaf [8, 21]: 90
- Plant response rating, Velvetleaf [8, 22]: 90
- Velvetleaf plant response rating [8, 23]: 100
- Velvetleaf plant response rating [8, 24]: 100
- Plant response rating, Oilseed Rape [9, 17]: 95
- Oilseed Rape plant response rating [9, 18]: 98
- Plant response rating, Oilseed Rape [9, 19]: 98
- Plant response rating, Oilseed Rape [9, 20]: 5
- Plant response rating, Oilseed Rape [9, 21]: 85
- Plant response rating, Oilseed Rape [9, 22]: 90
- Oilseed Rape plant response rating [9, 23]: 90
- Oilseed Rape plant response rating [9, 24]: 98
- Plant response rating, Morningglory [10, 17]: 100
- Morningglory plant response rating [10, 18]: 100
- Plant response rating, Morningglory [10, 19]: 95
- Plant response rating, Morningglory [10, 20]: 45
- Plant response rating, Morningglory [10, 21]: 85
- Plant response rating, Morningglory [10, 22]: 90
- Morningglory plant response rating [10, 23]: 95
- Morningglory plant response rating [10, 24]: 100
- Plant response rating, Soybean [11, 17]: 55
- Soybean plant response rating [11, 18]: 40
- Plant response rating, Soybean [11, 19]: 40
- Plant response rating, Soybean [11, 20]: 5
- Plant response rating, Soybean [11, 21]: 55
- Plant response rating, Soybean [11, 22]: 65
- Soybean plant response rating [11, 23]: 80
- Soybean plant response rating [11, 24]: 75
- Plant response rating, Nutsedge, Yellow [12, 17]: 75
- Nutsedge, Yellow plant response rating [12, 18]: 90
- Plant response rating, Nutsedge, Yellow [12, 19]: 98
- Plant response rating, Nutsedge, Yellow [12, 20]: 20
- Plant response rating, Nutsedge, Yellow [12, 21]: 55
- Plant response rating, Nutsedge, Yellow [12, 22]: 70
- Nutsedge, Yellow plant response rating [12, 23]: 95
- Nutsedge, Yellow plant response rating [12, 24]: 95
- Plant response rating, Pigweed [13, 17]: 80
- Pigweed plant response rating [13, 18]: 98
- Plant response rating, Pigweed [13, 19]: 95
- Plant response rating, Pigweed [13, 20]: 100
- Plant response rating, Pigweed [13, 21]: 100
- Plant response rating, Pigweed [13, 22]: 100
- Pigweed plant response rating [13, 23]: 100
- Pigweed plant response rating [13, 24]: 100
- Plant response rating, Foxtail, Giant [14, 17]: 25
- Foxtail, Giant plant response rating [14, 18]: 25
- Plant response rating, Foxtail, Giant [14, 19]: 55
- Plant response rating, Foxtail, Giant [14, 20]: 30
- Plant response rating, Foxtail, Giant [14, 21]: 65
- Plant response rating, Foxtail, Giant [14, 22]: 75
- Foxtail, Giant plant response rating [14, 23]: 90
- Foxtail, Giant plant response rating [14, 24]: 40
- Plant response rating, Crabgrass, Large [15, 17]: 0
- Crabgrass, Large plant response rating [15, 18]: 5
- Plant response rating, Crabgrass, Large [15, 19]: 20
- Plant response rating, Crabgrass, Large [15, 20]: 0
- Plant response rating, Crabgrass, Large [15, 21]: 30
- Plant response rating, Crabgrass, Large [15, 22]: 35
- Crabgrass, Large plant response rating [15, 23]: 65
- Crabgrass, Large plant response rating [15, 24]: 5
- Plant response rating, Ryegrass, Italian [16, 17]: 5
- Ryegrass, Italian plant response rating [16, 18]: 10
- Plant response rating, Ryegrass, Italian [16, 19]: 5
- Plant response rating, Ryegrass, Italian [16, 20]: 90
- Plant response rating, Ryegrass, Italian [16, 21]: 95
- Plant response rating, Ryegrass, Italian [16, 22]: 100
- Ryegrass, Italian plant response rating [16, 23]: 100
- Ryegrass, Italian plant response rating [16, 24]: 35

Compound: Cc1nn(C)c(=O)c(-c2cccc3ccc(C#N)cc23)c1O [Compound 127]
- Plant response rating, Johnsongrass [1, 17]: 5
- Johnsongrass plant response rating [1, 18]: 5
- Plant response rating, Johnsongrass [1, 19]: 15
- Johnsongrass plant response rating [1, 24]: 10
- Plant response rating, Lambsquarters [2, 17]: 70
- Lambsquarters plant response rating [2, 18]: 80
- Plant response rating, Lambsquarters [2, 19]: 98
- Lambsquarters plant response rating [2, 24]: 85
- Plant response rating, Blackgrass [3, 17]: 0
- Blackgrass plant response rating [3, 18]: 5
- Plant response rating, Blackgrass [3, 19]: 35
- Blackgrass plant response rating [3, 24]: 5
- Plant response rating, Galium [4, 17]: 75
- Galium plant response rating [4, 18]: 80
- Plant response rating, Galium [4, 19]: 90
- Galium plant response rating [4, 24]: 85
- Plant response rating, Corn [5, 17]: 0
- Corn plant response rating [5, 18]: 0
- Plant response rating, Corn [5, 19]: 10
- Corn plant response rating [5, 24]: 5
- Plant response rating, Waterhemp [6, 17]: 70
- Waterhemp plant response rating [6, 18]: 85
- Plant response rating, Waterhemp [6, 19]: 95
- Waterhemp plant response rating [6, 24]: 85
- Plant response rating, Wheat [7, 17]: 0
- Wheat plant response rating [7, 18]: 5
- Plant response rating, Wheat [7, 19]: 30
- Wheat plant response rating [7, 24]: 5
- Plant response rating, Velvetleaf [8, 17]: 20
- Velvetleaf plant response rating [8, 18]: 30
- Plant response rating, Velvetleaf [8, 19]: 55
- Velvetleaf plant response rating [8, 24]: 25
- Plant response rating, Oilseed Rape [9, 17]: 0
- Oilseed Rape plant response rating [9, 18]: 0
- Plant response rating, Oilseed Rape [9, 19]: 100
- Oilseed Rape plant response rating [9, 24]: 25
- Plant response rating, Morningglory [10, 17]: 65
- Morningglory plant response rating [10, 18]: 75
- Plant response rating, Morningglory [10, 19]: 98
- Morningglory plant response rating [10, 24]: 85
- Plant response rating, Soybean [11, 17]: 0
- Soybean plant response rating [11, 18]: 10
- Plant response rating, Soybean [11, 19]: 35
- Soybean plant response rating [11, 24]: 30
- Plant response rating, Nutsedge, Yellow [12, 17]: 10
- Nutsedge, Yellow plant response rating [12, 18]: 35
- Plant response rating, Nutsedge, Yellow [12, 19]: 70
- Nutsedge, Yellow plant response rating [12, 24]: 60
- Plant response rating, Pigweed [13, 17]: 70
- Pigweed plant response rating [13, 18]: 85
- Plant response rating, Pigweed [13, 19]: 95
- Pigweed plant response rating [13, 24]: 90
- Plant response rating, Foxtail, Giant [14, 17]: 5
- Foxtail, Giant plant response rating [14, 18]: 5
- Plant response rating, Foxtail, Giant [14, 19]: 40
- Foxtail, Giant plant response rating [14, 24]: 25
- Plant response rating, Crabgrass, Large [15, 17]: 0
- Crabgrass, Large plant response rating [15, 18]: 5
- Plant response rating, Crabgrass, Large [15, 19]: 25
- Crabgrass, Large plant response rating [15, 24]: 10
- Plant response rating, Ryegrass, Italian [16, 17]: 50
- Ryegrass, Italian plant response rating [16, 18]: 75
- Plant response rating, Ryegrass, Italian [16, 19]: 90
- Ryegrass, Italian plant response rating [16, 24]: 80
